Drawing on ChEMBL document CHEMBL1141976, “Discovery of 2,3,5-trisubstituted pyridine derivatives as potent Akt1 and Akt2 dual inhibitors” (Bioorg Med Chem Lett, 2005), this text covers IC50 for 17 compounds.

Test [1] deals with RAC-gamma serine/threonine-protein kinase (Homo sapiens, UniProt Q9Y243). The test can be described thus: Inhibitory concentration against Akt3 kinase.
The target in test [2] is RAC-alpha serine/threonine-protein kinase (Homo sapiens, UniProt P31749). Description: Inhibitory concentration against Akt1 kinase.
Sequence of RAC-alpha serine/threonine-protein kinase (P31749 whole entry): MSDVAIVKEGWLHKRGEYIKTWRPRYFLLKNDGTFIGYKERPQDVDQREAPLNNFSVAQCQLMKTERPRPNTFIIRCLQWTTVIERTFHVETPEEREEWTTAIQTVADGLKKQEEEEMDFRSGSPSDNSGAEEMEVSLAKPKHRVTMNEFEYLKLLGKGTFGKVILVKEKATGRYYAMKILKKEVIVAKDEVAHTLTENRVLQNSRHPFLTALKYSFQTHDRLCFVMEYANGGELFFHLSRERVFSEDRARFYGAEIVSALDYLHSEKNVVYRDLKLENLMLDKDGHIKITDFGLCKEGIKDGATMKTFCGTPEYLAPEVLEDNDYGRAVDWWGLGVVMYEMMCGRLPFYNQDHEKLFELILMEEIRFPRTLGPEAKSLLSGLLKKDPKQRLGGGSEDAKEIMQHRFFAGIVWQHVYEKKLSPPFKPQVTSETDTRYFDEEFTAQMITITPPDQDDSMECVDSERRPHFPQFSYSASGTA
Test [3] is described as follows: Inhibitory concentration against Akt2 kinase. Also on record: species or system Homo sapiens.

The structures appear in SMILES notation. Where only a bound is given, the exact number is not on record here.

Sequence of RAC-gamma serine/threonine-protein kinase (Q9Y243 whole entry, looked up): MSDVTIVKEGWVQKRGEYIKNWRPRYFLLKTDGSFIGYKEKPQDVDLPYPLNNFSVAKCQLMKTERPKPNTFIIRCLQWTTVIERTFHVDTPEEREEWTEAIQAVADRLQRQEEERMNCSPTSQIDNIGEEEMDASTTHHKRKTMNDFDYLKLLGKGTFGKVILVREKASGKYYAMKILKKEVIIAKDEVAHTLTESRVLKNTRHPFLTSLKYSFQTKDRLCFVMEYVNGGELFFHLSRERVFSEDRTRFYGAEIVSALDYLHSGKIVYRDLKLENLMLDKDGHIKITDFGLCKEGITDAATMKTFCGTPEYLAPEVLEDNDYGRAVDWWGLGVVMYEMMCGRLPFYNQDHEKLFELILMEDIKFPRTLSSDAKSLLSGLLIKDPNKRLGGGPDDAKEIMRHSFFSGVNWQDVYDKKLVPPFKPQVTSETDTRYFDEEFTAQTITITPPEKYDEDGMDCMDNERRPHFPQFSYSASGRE

As to `c1ccc(-c2cc(-c3nn[nH]n3)cnc2-c2ccc(CNCc3ccc(-c4csnn4)cc3)cc2)cc1`, the IC50 in test [1] was over 50 µM; in test [2] it was 0.177 µM; in test [3] it was 0.248 µM.
With `N#Cc1cnc(-c2ccc(CN3CCC(c4nc5cc(F)ccc5[nH]4)CC3)cc2)c(-c2ccccc2)c1`, the results for the IC50 in test [1], in test [2] and in test [3] were over 50 µM, 0.865 µM and 6.65 µM, respectively.
With `Cc1ccc2[nH]c(C3CCN(Cc4ccc(-c5ncc(C#N)cc5-c5ccccc5)cc4)CC3)nc2c1`, the IC50 in test [1] is over 50 µM; in test [2], 2.87 µM; in test [3], 11.4 µM.
The matching figures for `c1ccc(-c2cc(-c3nn[nH]n3)cnc2-c2ccc(CN3CCC(n4cnc5ccccc54)CC3)cc2)cc1`: over 50 µM, 4.24 µM and 1.96 µM.
For `Oc1nc2ccccc2n1C1CCN(Cc2ccc(-c3nc4ccccc4cc3-c3ccccc3)cc2)CC1` the same measures were over 50 µM, 0.365 µM and 1.21 µM.
Consider `N#Cc1cnc(-c2ccc(CNCc3ccc(-c4csnn4)cc3)cc2)c(-c2ccccc2)c1`, for which the IC50 in test [1] was over 50 µM; in test [2] it was 1.29 µM; in test [3] it was 4.81 µM.
For `Oc1nc2ccccc2n1C1CCN(Cc2ccc(-c3cc4ccccc4nc3-c3ccccc3)cc2)CC1` the same measures were over 50 µM, 3.14 µM and 33.7 µM.
Regarding `Cc1nc2ccccc2n1C1CCN(Cc2ccc(-c3ncc(C#N)cc3-c3ccccc3)cc2)CC1`, the IC50 in test [1] is over 50 µM; in test [2], 7.41 µM; in test [3], 18.4 µM.
Regarding `Cn1nnnc1-c1cnc(-c2ccc(CN3CCC(n4c(=O)[nH]c5ccccc54)CC3)cc2)c(-c2ccccc2)c1`, the IC50 in test [2] turned out to be 1.77 µM; in test [3] it was 0.613 µM.
Turning to `c1ccc(-c2cc(-c3nn[nH]n3)cnc2-c2ccc(CN3CCC(c4nc5ccccc5[nH]4)CC3)cc2)cc1`, the IC50 in test [1] is over 50 µM; in test [2], 3.32 µM; in test [3], 1.5 µM.
For the compound `Fc1ccc2[nH]c(C3CCN(Cc4ccc(-c5ncc(-c6nn[nH]n6)cc5-c5ccccc5)cc4)CC3)nc2c1`, the 50% inhibitory concentration (IC50) in test [1] is over 50 µM; in test [2], 0.239 µM; in test [3], 1.72 µM.
The matching figures for `N#Cc1cnc(-c2ccc(CN3CCC(n4cnc5ccccc54)CC3)cc2)c(-c2ccccc2)c1`: over 50 µM, 4.4 µM and 13 µM.
In the case of `N#Cc1cnc(-c2ccc(CN3CCC(n4c(=O)[nH]c5ccccc54)CC3)cc2)c(-c2ccccc2)c1`, the figures for the IC50 in test [1], in test [2] and in test [3] were over 50 µM, 0.762 µM and 3.14 µM, respectively.
Consider `Cc1nc2ccccc2n1C1CCN(Cc2ccc(-c3ncc(-c4nn[nH]n4)cc3-c3ccccc3)cc2)CC1`, for which the IC50 in test [1] was over 50 µM; in test [2], 6.91 µM; in test [3], 2.75 µM.
For `O=c1[nH]c2ccccc2n1C1CCN(Cc2ccc(-c3ncc(-c4nnn[nH]4)cc3-c3ccccc3)cc2)CC1` the same measures were over 50 µM, 0.273 µM and 0.157 µM.
For `Cc1ccc2[nH]c(C3CCN(Cc4ccc(-c5ncc(-c6nn[nH]n6)cc5-c5ccccc5)cc4)CC3)nc2c1` the same measures were over 50 µM, 0.763 µM and 0.422 µM.
For the compound `N#Cc1cnc(-c2ccc(CN3CCC(c4nc5ccccc5[nH]4)CC3)cc2)c(-c2ccccc2)c1`, the half-inhibitory concentration (IC50) in test [1] was over 50 µM; in test [2] it was 1.47 µM; in test [3], 8.74 µM.
